Results reported in PubChem BioAssay (NCI).
“And” between values parts separate entries of the source, which are not always exact repeats. Identical values can stand only once.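 Five compound concentrations were applied to cells in 96-well plates for 48 hours; endpoints were derived by simple linear interpolation of the resulting dose-response curve. Abbreviation: GI50, concentration required for 50% inhibition of growth. Definition used: TGI = concentration required for complete inhibition of growth.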

Legend:
Assay in all cases: inhibition of tumour cell growth, NCI panel, 48 h
[1] = system: OVCAR-4 ovarian
[2] = system: SF-268 CNS
[3] = system: OVCAR-8 ovarian
[4] = system: DLD-1 colon
[5] = system: 786-0 renal
[6] = system: NCI-H226 lung
[7] = system: KM20L2 colon
[8] = system: HOP-62 NSCLC
[9] = system: HS 578T breast
[10] = system: DU-145 prostate

SMILES | TGI [1] | TGI [2] | TGI [3] | TGI [4] | TGI [5] | TGI [6] | TGI [7] | TGI [8] | GI50 [8] | GI50 [3] | GI50 [4] | GI50 [5] | GI50 [7] | GI50 [1] | GI50 [2] | GI50 [9] | TGI [9] | GI50 [10] | TGI [10] | GI50 [6]
CCCN(CCC)C(=O)C(=O)c1c(N)[nH]n(-c2ccccc2)c1=O | > 100 µM | > 100 µM | > 100 µM | > 100 µM | > 100 µM | > 100 µM | > 100 µM |  |  |  |  |  |  |  |  |  |  |  |  | 
NC(=O)NC12CC3CC(CC(F)(C3)C1)C2 |  |  | > 100 µM | > 100 µM | > 100 µM |  | > 100 µM | > 100 µM |  |  |  |  |  |  |  |  |  |  |  | 
CC(C)(c1ccccc1)c1ccc(Oc2ccc(C#N)c(C#N)c2)cc1 | > 100 µM | > 100 µM | > 100 µM | > 100 µM | > 100 µM |  | > 100 µM | > 100 µM | > 100 µM | > 100 µM | > 100 µM | > 100 µM | > 100 µM |  |  |  |  |  |  | 
O=C(O)C(CS)NCc1c2ccccc2nc2ccccc12 (stereo unspecified) | 37.6 µM | > 100 µM | > 100 µM | > 100 µM | > 100 µM | > 100 µM | > 100 µM |  |  |  |  |  |  |  |  |  |  |  |  | 
O=C1NOC(c2ccc(O)cc2)(c2ccc(O)cc2)c2ccccc21 | > 100 µM | > 100 µM | > 100 µM |  | > 100 µM | > 100 µM |  | > 100 µM | > 100 µM | > 100 µM |  | > 100 µM |  | > 100 µM | > 100 µM | > 100 µM | > 100 µM | > 100 µM | > 100 µM | > 100 µM
NC(=O)c1ccc(-c2nc(-c3ccc4c(c3)OCO4)c(-c3ccccn3)[nH]2)cc1 | > 100 µM | > 100 µM | > 100 µM |  | > 100 µM | > 63.1 µM |  | > 100 µM | > 25 µM and 43 µM | > 25 µM and 34.1 µM |  | > 25 µM and 36.4 µM |  | > 25 µM and 31.1 µM | > 25 µM and 50.7 µM | > 25 µM and 28.2 µM | > 100 µM | > 25 µM and 38.7 µM | > 100 µM | > 25 µM and 22.2 µM
COc1cc(OC)c(C(=O)/C=C/c2cccc(C#N)c2)c(OC)c1 | 10 µM | 7.9 µM | 6.51 µM |  | 5.52 µM | 4.56 µM |  | 4.55 µM | 1.33 µM | 1.47 µM |  | 1.31 µM |  | 2.03 µM | 1.69 µM | 1.59 µM | 44.9 µM | 1.47 µM | 6.37 µM | 1.28 µM
COc1ccc(C2=CC(c3ccc(OC)cc3Br)N3C=CSC3=N2)cc1 (stereo unspecified) | 27.3 µM | 48.5 µM | 27.8 µM |  | 28.7 µM | 37.8 µM |  | 24.8 µM | 10.5 µM | 4.09 µM |  | 13.1 µM |  | 5.04 µM | 13.7 µM | 14.4 µM | 66.5 µM | 11.9 µM | 33.1 µM | 14.7 µM
CNC(=O)OCc1c2ccncc2c(C)c2c1[nH]c1ccc(OC)cc12 | 1.13 µM | 0.79 µM | > 100 µM |  | 0.494 µM | 0.784 µM | 0.799 µM | 1.07 µM |  |  |  |  |  |  |  |  |  |  |  | 
CN1CCc2[nH]nc(-c3n[nH]c4c3CN(C)CC4)c2C1 | > 100 µM | > 100 µM | > 100 µM |  | > 100 µM | > 100 µM |  | > 100 µM |  |  |  |  |  |  |  |  | > 100 µM |  | > 100 µM | 
Cn1cccc1-c1cc(-c2ccc(Br)cc2)[nH]c(=O)c1C#N | > 100 µM | > 100 µM | > 100 µM |  | > 100 µM | > 100 µM |  | > 100 µM | > 100 µM | > 100 µM |  | > 100 µM |  | > 100 µM | > 100 µM | > 100 µM | > 100 µM | > 100 µM | > 100 µM | > 100 µM
CN(C)c1ccc(C(=NO)c2ccc(N(C)C)cc2)cc1 | > 100 µM | > 100 µM | > 100 µM |  | > 100 µM | > 100 µM |  | > 100 µM | 6.1 µM | 3.9 µM |  | 7.49 µM |  | 89 µM | 4.71 µM | 7.39 µM | > 100 µM | 4.52 µM | > 100 µM | 9.43 µM
CC1=C(CCC(C)NCc2ccc(OCCCN3CCCCC3)cc2)C(C)(C)CCC1 (stereo unspecified) | 5.5 µM | 3.08 µM | 5.31 µM |  | 3.1 µM | 16.5 µM |  | 3.64 µM | 1.84 µM | 2.48 µM |  | 1.6 µM |  | 1.99 µM | 1.49 µM | 1.61 µM | 3.79 µM | 1.85 µM | 4.17 µM | 3.82 µM
Cc1nn(-c2ccc(Cl)cc2)c2nc3c(nc12)C(=O)C(=O)c1ccccc1-3 | > 100 µM | > 100 µM | > 100 µM |  | 25.9 µM | 30.1 µM |  | 30.4 µM | 9.71 µM | 21.7 µM |  | 5.39 µM |  | 6.08 µM | 12.4 µM | 2.08 µM | 5.5 µM | 1.98 µM | 3.57 µM | 7.65 µM
CCOC(=O)c1cc2c(n1Cc1cc(OC)c(OC)c(OC)c1)-c1oncc1CCC2 | > 67.4 µM | > 60.2 µM | > 49.7 µM |  | > 35.9 µM | > 53 µM |  | 37.2 µM | 0.447 µM | 0.332 µM |  | 0.583 µM |  | 1.36 µM | 0.657 µM | 0.343 µM | > 100 µM | 0.302 µM | 6.87 µM | 1.27 µM
OCCn1cnc2c(SCc3ccccc3)ncnc21 | > 100 µM | > 100 µM | > 100 µM |  | > 100 µM | > 100 µM |  | > 100 µM |  |  |  |  |  |  |  |  | > 100 µM |  | > 100 µM | 
COc1ccc(CC2(Cc3ccc(OC)cc3)CCOC2=O)cc1 | > 100 µM | > 100 µM | > 100 µM | > 100 µM | > 100 µM | > 100 µM |  | > 100 µM |  |  |  |  |  |  |  |  |  |  |  | 
Nc1ncnc2c1c(-c1ccc(Oc3ccccc3)cc1)nn2C[C@@H]1SSC[C@H]1O | > 83.4 µM | 15.1 µM | 14.3 µM |  | 8.31 µM | 4.7 µM |  | 6.74 µM | 0.797 µM | 3.35 µM |  | 2.41 µM |  | 2.12 µM | 0.199 µM | 2.96 µM | 11.2 µM | 2.26 µM | 8.97 µM | 1.69 µM
